Assay results reported in patent US20190365675A1, “COMPOSITIONS FOR THE PREVENTION AND/OR TREATMENT OF ALCOHOL USE DISORDERS” (SERVICIO ANDALUZ DE SALUD, priority 2016, published 2019).

Key:
NF-kB p65 subunit = test: NF-κB p65 mRNA and nuclear activity (ELISA-based kit) in frontal cortex after ethanol intoxication; format: in vivo, Wistar rats
Procedure: The animals were treated with intragastric (i.g.) ethanol 3 times a day using an i.g. cannula (16G needle, Fisher Scientific, Waltham, Mass., USA), following a protocol based on a slightly modified standard 4-day alcohol intoxication pattern (Bernier et al., 2002a, b) (FIG. 1A). The ethanol doses were administered every 8 h for a total time of 4 days. The rats treated with ethanol received an initial loading dose of 5 g/kg of ethanol in a 30% solution (w/v) and then a maximum maintenance dose of 3 g/kg, which were determined based on blood ethanol levels (BEL). This repeated standard alcohol intoxication paradigm kept BEL intoxication relatively constant in a range of sedation/ataxia (190 to 430 mg/dl, Table 3), according to the 6-point alcohol intoxication behavior scale (Majchrowicz, 1975). […] The quantitative changes in mRNA levels were estimated by means of RT-PCR, carried out in the presence of the SYBR green primer using a 20-L reaction in a Rotor-Gene (Corbett Research®, Mortlake, NSW, Australia). […] The nuclear extracts of the frontal cortex were incubated with specific NF-kB p65 subunit response element probes, and the binding of p65 to its probe was detected using an antibody specific for this subunit. A secondary antibody labeled by means of horseradish peroxidase was added, and the binding was detected by means of spectrophotometry at 450 nm. […]

caspase-3 = test: Caspase-3 mRNA, protein and activity (fluorometric assay) in frontal cortex after ethanol intoxication; format: in vivo, Wistar rats; settings: OEA pre-treatment
Procedure: The animals were treated with intragastric (i.g.) ethanol 3 times a day using an i.g. cannula (16G needle, Fisher Scientific, Waltham, Mass., USA), following a protocol based on a slightly modified standard 4-day alcohol intoxication pattern (Bernier et al., 2002a, b) (FIG. 1A). The ethanol doses were administered every 8 h for a total time of 4 days. The rats treated with ethanol received an initial loading dose of 5 g/kg of ethanol in a 30% solution (w/v) and then a maximum maintenance dose of 3 g/kg, which were determined based on blood ethanol levels (BEL). This repeated standard alcohol intoxication paradigm kept BEL intoxication relatively constant in a range of sedation/ataxia (190 to 430 mg/dl, Table 3), according to the 6-point alcohol intoxication behavior scale (Majchrowicz, 1975). The mean dose of ethanol/rat/day (days 1-4) was 7.06 g/kg, similar to other studies (Obernier et al., 2002a, b). OEA (5 mg/kg, i.p., except initial dose of 10 mg/kg i.p.; synthesized as described in Giuffrida et al., 2000) was dissolved in the vehicle (5% Tween-80 in saline solution) and injected 10 minutes before each of the administrations of ethanol by an intragastric gavage. The anti-inflammatory activity of OEA at 10 mg/kg per intraperitoneal route in the frontal cortex before the injection of LPS (Sayd et al., 2014) was previously referred to. In this study, OEA is repeatedly injected as a pre-treatment before each administration of ethanol. The doses of OEA chosen in this study are in the range of doses tested as being pharmacologically active (5-20 mg/kg, i.p.) (Bilbao et al., 2015). […] The autoradiograph was quantified by densitometry (NIH ImageJ® software, National Biosciences, Lincoln, Nebr. USA) and expressed as optical density (OD). […] The quantitative changes in mRNA levels were estimated by means of RT-PCR, carried out in the presence of the SYBR green primer using a 20-L reaction in a Rotor-Gene (Corbett Research®, Mortlake, NSW, Australia). […] Caspase-3 activity was determined using a fluorometric assay kit (Abnova®, Taiwan) according to the manufacturer's protocol. […]

In the case of `CCCCCCCC/C=C\CCCCCCCC(=O)NCCO` [OEA, oleoylethanolamide], the “Ethanol-induced increase in nuclear activity of p65” value (NF-kB p65 subunit; frontal cortex nuclear extracts, OEA pre-treatment) is reported as “counteracted”, the “Ethanol-induced increase in p65 mRNA levels” value (NF-kB p65 subunit; frontal cortex, OEA pre-administration) is reported as “partially prevented” and the “Alcohol-induced overexpression of caspase-3 mRNA” value (caspase-3) is reported as “unable to prevent”. For the same compound, the “Ethanol-induced overexpression of caspase-3 protein” value (caspase-3) was “prevented” and the “Ethanol-induced increase in activity of caspase-3” value (caspase-3; fluorometric assay) was “reverted”.
